Converted amounts (≈) assume the structure as drawn.
Key:
[1] = Aqueous solubility at pH 6.8 and 25 degC; assay type: physicochemical; settings: aqueous medium
[2] = target: Transient receptor potential cation channel subfamily V member 1 (Homo sapiens, UniProt Q8NER1); test: Inhibition of calcium influx evoked by capsaicin in human TRPV1 expressing cells by fluorescence assay; assay type: functional
Transient receptor potential cation channel subfamily V member 1, sequence (Q8NER1 whole entry): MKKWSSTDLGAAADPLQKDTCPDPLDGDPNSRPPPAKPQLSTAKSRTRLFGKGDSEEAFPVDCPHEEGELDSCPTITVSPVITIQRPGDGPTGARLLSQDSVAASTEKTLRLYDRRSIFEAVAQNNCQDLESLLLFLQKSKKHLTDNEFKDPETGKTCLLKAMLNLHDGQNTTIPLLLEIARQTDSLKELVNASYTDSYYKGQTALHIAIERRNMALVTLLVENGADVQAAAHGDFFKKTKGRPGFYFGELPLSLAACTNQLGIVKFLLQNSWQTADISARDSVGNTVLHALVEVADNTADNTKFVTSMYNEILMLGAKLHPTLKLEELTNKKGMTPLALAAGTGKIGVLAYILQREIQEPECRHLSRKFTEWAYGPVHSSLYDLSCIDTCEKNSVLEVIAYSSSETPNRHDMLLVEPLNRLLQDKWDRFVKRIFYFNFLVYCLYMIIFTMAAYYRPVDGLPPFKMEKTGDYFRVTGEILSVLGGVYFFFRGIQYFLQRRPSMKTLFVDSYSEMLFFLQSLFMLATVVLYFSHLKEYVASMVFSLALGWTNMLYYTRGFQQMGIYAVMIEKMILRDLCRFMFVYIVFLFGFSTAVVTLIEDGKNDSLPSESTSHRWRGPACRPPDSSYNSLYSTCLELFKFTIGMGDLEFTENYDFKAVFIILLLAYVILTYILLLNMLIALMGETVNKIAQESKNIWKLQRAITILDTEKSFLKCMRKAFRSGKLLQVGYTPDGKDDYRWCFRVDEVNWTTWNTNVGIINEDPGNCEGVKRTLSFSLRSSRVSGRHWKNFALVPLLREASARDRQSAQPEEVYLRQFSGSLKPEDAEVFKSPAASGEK

solubility [1] [µg/mL] | IC50 [2] [µM] | Structure (SMILES)
4 (≈ 12.8 µM) | 0.013 | Cc1nc2cc(C(C)C)c(-c3ccc(Cl)cc3)cc2c(=O)[nH]1
– | 0.037 | CCOc1cc(-c2cc3c(=O)[nH]c(C)nc3cc2C(C)C)c(Cl)cc1Cl
– | 0.042 | Cc1nc(O)c2cc(-c3ccc(C)c(Cl)c3)c(C(C)C)cc2n1

Source: ChEMBL document CHEMBL1147725, “Identification and biological characterization of 6-aryl-7-isopropylquinazolinones as novel TRPV1 antagonists that are effective in models of chronic pain” (J Med Chem, 2006)
